Experimental data from PMC8750417, “Intracellular Amplifiers of Reactive Oxygen Species Affecting Mitochondria as Radiosensitizers” (Cancers, 2021).

What was measured:
[1] = test system: A2780 cells; assay: Accumulation of prodrugs in A2780 cells (atomic emission spectrometry of B, Fe); format: cell-based, human; conditions: 5 µM, 4 h, Zn as internal standard, carrier = 1
Experimental: colored arrow. After the initial lagging period, the oxidation reactions reach their maximum […]
Accumulation of prodrugs in A2780 cells
A2780 cells (around 150 cells/µL, 40 mL) were seeded in T175 flasks (Greiner, Germany) in RPMI 1640 medium supplemented with 5% FBS, 1% L-glutamine, and 1% penicillin/streptomycin and incubated for 3-4 days at 37°C in the chamber filled with 5%
CO2. Next, a fresh portion of RPMI 1640 medium supplemented with 5% FBS, 1% L - glutamine, and 1% penicillin/streptomycin was added to replace old medium. Prodrugs ([…], 400 µL in DMSO, final concentration: 5 µM) or carrier (DMSO, 400 µL, final concentration: 1%. v/v) were added into the bottles and the cells were further incubated at 37°C for 4 h. The cells were washed with DPBS (2 x 10 mL) and trypsinated (trypsin/EDTA, 0.025%/0.01%, v/v, 2 mL). After the cells were harvested and centrifuged (5 min, 1000 rpm) in 50 mL falcon tube, the cell pellet was re-suspended in DPBS (1 mL), the suspension - transferred to 1.5 mL EP tube and centrifuged one more time (2 min, 2000 rpm). The obtained cell pellet was shaken with concentrated HNO3 (65%, 100 µL) in an Eppendorf Thermomixer for 10 min at 95° C, 600 rpm. […] The insoluble components were separated by centrifugation (30 min, 13000 rpm) and the supernatant was analyzed by atomic emission spectrometry (AES) for the detection of B, Zn and Fe. […]

[2] = Prodrug-induced generation of ROS in cell free settings (DCFH/H2O2); conditions: for ROS Release Efficacy: relative acceleration of the rate of DCFH fluorescence increase with H2O2, pH 7.4, FeSO4 = 1.0
From the text: As previously reported, the NAAF-prodrugs react with ROS like H2O2, first leading to the cleavage of the B-C-bond with the formation of the phenol derivatives (product 2c-1, Figure S49, SI). The latter compounds exist in equilibrium with the corresponding phenolates. The phenolates undergo the spontaneous 1,6-elimination of para-quinone methide (QM) followed by the release of CO2 with the formation of the N-alkylaminoferrocene NAAF drugs (product 2c-2, Figure S46, SI). By using electrospray ionization mass spectrometry (ESI–MS), we confirmed for one representative prodrug 2c that it reacts with H2O2 in cell free settings according to this common mechanism (ESI-MS, Figures S46–S48, SI). The NAAF is further oxidized by H2O2 or molecular oxygen with the generation of drug NAAF^+ and highly toxic HO• or/and O2^•−. Finally, the NAAF^+ is reduced by glutathione (GSH), thereby closing the catalytic cycle, in which the NAAF acts as a catalyst. We evaluated the formation of HO• or/and O2^•− by using 2′,7′-dichlorodihydrofluorescein (DCFH) as a probe (Table 1, Figure S49, SI). This probe is oxidized to the fluorescent product 2′,7′-dichlorofluorescein (DCF) in the presence of HO• or/and O2^•−. […] The lower activity of 2c and 2d correlates with their higher lipophilicity and their correspondingly higher propensity to form aggregates in aqueous solution (Figure S45, SI).
Prodrug-induced generation of ROS in cell free settings
2',7'-Dichlorodihydrofluorescein diacetate (DCFH-DA, 4.9 mg) was dissolved in DMF (100 μL) and mixed with aqueous NaOH (0.1 M, 900 μL). The resulting mixture was incubated for 30 min at 22 °C in the dark to obtain a stock solution of 2',7'-dichlorodihydrofluorescein (DCFH, 10 mM). Next, DCFH (1 µL ) was added to the solution containing MOPS buf fer (100 mM, pH 7.4), N,N,N'N' -e thylenediaminetetraacetic acid (EDTA , 10 mM) and glutathione (GSH , 5 mM) (1 mL, final concentration of DCFH 10 μM). The reaction mixture was heated to 37 °C and H2O2 (1 µL, final concentration 10 mM) was added. The reaction was monitored by fluorescence spectroscopy: λex = 501 nm, λem = 523 nm. After around 5 min, prodrugs (1 mM in DMF, 10 μL) or positive control FeSO4 (1 mM in water, 10 μL) were added, and the fluorescence monitoring was continued until the fluorescence signal growth was stalled after approximately 100 to 300 min. A representative kinetics of ROS […]
The data are presented in Table 1 as relative acceleration of the rate of the fluorescence increase, where the rate of the fluorescence increase obtained in the presence of positive control FeSO4 was set […]
y = a time + b (a = (dF/dt) , min-1)
Figure S49. Increase of the fluorescence intensity (λex = 501 nm, λem = 523 nm) upon oxidation of DCFH by H2O2 in the presence of FeSO4. Experimental details are provided in the description above. The time point of the FeSO4 addition is indicated with a black […]
(also on this page, place not known: ° C µL) buffer N,N,N'N'-ethylenediaminetetraacetic (EDTA, (GSH, ° C FeSO 4 (λ ex λ em Fluorescence (a.u.) (dF/dt)0, min -1 Addition of)
(1 picture or pasted object on this page, not shown here)

SMILES: CC1(C)OB(c2ccc(COC(=O)N(Cc3cn(Cc4ccc(Cn5cc(Cc6ccccc6)nn5)cc4)nn3)[c-]3cccc3)cc2)OC1(C)C.[Fe+2].c1cc[cH-]c1 [2c]
- Relative iron amount [1]: 5.0 ± 0.1
- ROS-generating activity, fold lower than that of 2a and 2b ([2]; cell free DCFH assay): ~ 2 fold
- ROS Release Efficacy [2]: 0.35 ± 0.17

SMILES: CCOC(=O)CCCCCn1cc(CN(C(=O)OCc2ccc(B3OC(C)(C)C(C)(C)O3)cc2)[c-]2cccc2)nn1.[Fe+2].c1cc[cH-]c1 [compound 1]
- Relative iron amount [1]: 1.4 ± 0.1
- ROS Release Efficacy [2]: 0.99 ± 0.16
